The structures appear in SMILES notation.

One assay deals with MOLM14 D835Y cells. Kind of assay: MOLM14 D835Y cell viability assay (Cell Titer Glo). Format: cell-based. As to the method: (§1) Both cell lines have activated FLT3 receptors, each of which carry additional resistance mutations in the kinase domain (D835Y and F691L, respectively).
(§2) MOLM14 D835Y and MOLM14 F691L cells were grown in RPMI-1640 media supplemented with 20% fetal bovine serum (FBS). For viability/cytotoxicity assessments, cells were seeded into 1536-well white polystyrene tissue culture-treated Greiner plates using a Multidrop Combi dispenser (ThermoFisher), in final volume 5 μL of growth media per well, at a density of 1000 cells per well. After cell addition, 23 nL of test compound were transferred into individual wells (22 doses tested for each test compound, with a 1:2 dilution series starting at 10 μM) via a 1536 pin-tool. Bortezomib (final concentration 2.3 μM) was used as a positive control for cell cytotoxicity. Plates were incubated for 48 hours at standard incubator conditions covered by a stainless steel gasketed lid to prevent evaporation. 48 hours post compound addition, 3 μL of Cell Titer Glo (Promega) were added to each well and plates were incubated at room temperature for 15 minutes with the stainless-steel lid in place. Luminescence readings were taken using a Viewlux imager (PerkinElmer) with a 2 second exposure time per plate.
Background: ATP-based viability assays read luminescence as a measure of living cells.

The target in another assay is T1, FLT3 (Homo sapiens, UniProt P36888).
T1 sequence (P36888 27-993): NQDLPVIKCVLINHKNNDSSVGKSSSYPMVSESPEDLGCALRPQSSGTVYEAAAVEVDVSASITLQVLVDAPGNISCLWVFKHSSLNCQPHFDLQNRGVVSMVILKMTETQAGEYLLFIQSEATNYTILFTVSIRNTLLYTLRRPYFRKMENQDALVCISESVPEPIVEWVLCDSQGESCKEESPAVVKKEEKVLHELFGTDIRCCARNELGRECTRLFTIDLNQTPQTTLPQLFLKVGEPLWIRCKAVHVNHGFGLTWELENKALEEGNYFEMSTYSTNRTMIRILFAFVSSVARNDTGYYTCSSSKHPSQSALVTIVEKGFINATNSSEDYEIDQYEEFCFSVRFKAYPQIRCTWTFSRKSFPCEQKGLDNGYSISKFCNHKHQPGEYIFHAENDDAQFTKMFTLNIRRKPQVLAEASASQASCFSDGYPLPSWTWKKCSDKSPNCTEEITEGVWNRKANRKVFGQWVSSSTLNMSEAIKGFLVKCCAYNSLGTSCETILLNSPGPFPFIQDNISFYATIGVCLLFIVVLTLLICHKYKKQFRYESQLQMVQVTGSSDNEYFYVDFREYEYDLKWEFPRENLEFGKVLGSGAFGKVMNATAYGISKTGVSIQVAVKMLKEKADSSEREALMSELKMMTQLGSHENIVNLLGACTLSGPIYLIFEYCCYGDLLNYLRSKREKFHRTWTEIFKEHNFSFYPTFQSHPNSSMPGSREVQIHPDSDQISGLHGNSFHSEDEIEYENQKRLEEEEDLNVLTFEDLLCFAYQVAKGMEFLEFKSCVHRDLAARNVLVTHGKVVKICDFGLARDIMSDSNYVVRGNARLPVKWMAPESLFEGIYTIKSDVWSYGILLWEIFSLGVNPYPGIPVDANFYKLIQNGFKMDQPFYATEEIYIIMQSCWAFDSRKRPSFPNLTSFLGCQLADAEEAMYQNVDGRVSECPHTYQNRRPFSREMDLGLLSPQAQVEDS
Kind of assay: RBC HotSpot Kinase Assay, FLT3. Format: biochemical. Also on record: purchased Reaction Biology (RBC), HotSpot kinase assay. To be noted: isolated kinase, 33P-ATP. The gist of the method: (§3)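 Functional radiometric activity assay: kinase + substrate + cofactors in Hepes pH 7.5/MgCl2/EGTA/Brij35/BSA/Na3VO4/DTT, 1% DMSO; cmpd preincubation 20 min RT; 33P-ATP start, 2 h RT; P81 filter-binding readout.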

The test system of another assay is MOLM14 F691L cells. The experiment in a line: MOLM14 F691L cell viability assay (Cell Titer Glo). Format: cell-based. Here is the method:
as §1, §2

The target in a further assay is T2, IRAK1 (Homo sapiens, UniProt P51617).
T2 construct: purchased Reaction Biology (RBC), HotSpot kinase assay
Kind of assay: RBC HotSpot Kinase Assay, IRAK1. Format: biochemical. To be noted: isolated kinase, 33P-ATP. A digest of the protocol: as §3

In another assay the target is T3, IRAK4 (Homo sapiens, UniProt Q9NWZ3).
T3 sequence (Q9NWZ3 1-460): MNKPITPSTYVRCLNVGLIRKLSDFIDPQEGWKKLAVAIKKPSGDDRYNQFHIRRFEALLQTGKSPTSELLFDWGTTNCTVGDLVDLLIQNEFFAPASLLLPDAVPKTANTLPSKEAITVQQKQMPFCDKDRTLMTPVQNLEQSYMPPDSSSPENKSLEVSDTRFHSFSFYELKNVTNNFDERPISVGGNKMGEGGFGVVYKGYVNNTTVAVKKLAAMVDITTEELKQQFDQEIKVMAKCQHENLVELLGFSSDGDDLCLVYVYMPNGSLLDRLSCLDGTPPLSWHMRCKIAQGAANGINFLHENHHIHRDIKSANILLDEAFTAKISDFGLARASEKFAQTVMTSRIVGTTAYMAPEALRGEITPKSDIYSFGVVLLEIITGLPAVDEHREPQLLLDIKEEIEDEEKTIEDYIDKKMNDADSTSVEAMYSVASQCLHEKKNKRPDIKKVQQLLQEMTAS
Kind of assay: RBC HotSpot Kinase Assay, IRAK4. Format: biochemical. On the set-up: purchased Reaction Biology (RBC), HotSpot kinase assay. To be noted: isolated kinase, 33P-ATP. A digest of the protocol: as §3

T2 sequence (P51617 whole entry): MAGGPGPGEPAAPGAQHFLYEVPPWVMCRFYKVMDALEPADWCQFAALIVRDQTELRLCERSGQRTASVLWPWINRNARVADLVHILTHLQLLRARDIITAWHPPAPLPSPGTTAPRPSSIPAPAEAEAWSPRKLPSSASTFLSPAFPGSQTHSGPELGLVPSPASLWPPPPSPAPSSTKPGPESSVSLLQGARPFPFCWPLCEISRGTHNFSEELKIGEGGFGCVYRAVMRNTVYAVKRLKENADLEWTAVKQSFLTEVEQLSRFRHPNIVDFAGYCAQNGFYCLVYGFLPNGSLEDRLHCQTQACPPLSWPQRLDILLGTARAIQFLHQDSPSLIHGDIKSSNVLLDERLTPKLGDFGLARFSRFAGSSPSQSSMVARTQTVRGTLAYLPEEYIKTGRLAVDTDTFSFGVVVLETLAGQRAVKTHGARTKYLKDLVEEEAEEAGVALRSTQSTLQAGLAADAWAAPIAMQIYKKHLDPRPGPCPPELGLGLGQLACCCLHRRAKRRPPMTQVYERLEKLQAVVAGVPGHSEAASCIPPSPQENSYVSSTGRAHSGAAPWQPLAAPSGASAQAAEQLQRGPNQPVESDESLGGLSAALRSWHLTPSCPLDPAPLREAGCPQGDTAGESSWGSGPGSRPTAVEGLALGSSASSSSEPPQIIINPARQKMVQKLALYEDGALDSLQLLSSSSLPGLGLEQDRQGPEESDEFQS

For the compound `CC(O)(c1cn2c(-c3nc(N[C@H]4CNCC[C@@H]4F)c(F)cc3F)cnc2cn1)C(F)(F)F` (single isomer, unassigned) [Compound 94], the IC50 (commonly the midpoint of a concentration-inhibition curve) came out at 77 nM in the assay with MOLM14 D835Y cells (48 hours); 1 nM against FLT3; 864 nM in the assay on MOLM14 F691L cells (48 hours); 8 nM on IRAK1; 0.8 nM against IRAK4.
Regarding `CC1(c2cn3c(-c4cccc(N[C@@H]5CCCNC5)n4)cnc3cn2)CC1` [Compound 2, (R)-6-(6-(1-methylcyclopropyl)imidazo[1,2-a]pyrazin-3-yl)-N-(piperidin-3-yl)pyridin-2-amine], the IC50 is 7 nM with MOLM14 D835Y cells (Homo sapiens, MOLM-14, 48 h); < 0.5 nM against FLT3; 34 nM in the assay on MOLM14 F691L cells (Homo sapiens, MOLM-14, 48 h); 67 nM on IRAK1; 0.7 nM against IRAK4.
On the same counts, the results for `F[C@H]1CNC[C@@H]1Nc1cccc(-c2cnc3cnc(C4(C(F)(F)F)CC4)cn23)n1` [Compound 8, N-((3S,4S)-4-fluoropyrrolidin-3-yl)-6-(6-(1-(trifluoromethyl)cyclopropyl)imidazo[1,2-a]pyrazin-3-yl)pyridin-2-amine] are 44 nM, < 0.5 nM, 376 nM, 138 nM and 2 nM.
Turning to `FC(F)(F)C1(c2cn3c(-c4cccc(N[C@@H]5CCCNC5)n4)cnc3cn2)CC1` [Compound 9, (R)-N-(piperidin-3-yl)-6-(6-(1-(trifluoromethyl)cyclopropyl)imidazo[1,2-a]pyrazin-3-yl)pyridin-2-amine], the IC50 was 18 nM in the assay on MOLM14 D835Y cells (Homo sapiens, MOLM-14, 48 h); < 0.5 nM against FLT3; 106 nM with MOLM14 F691L cells (Homo sapiens, MOLM-14, 48 h); 126 nM on IRAK1; 7 nM at IRAK4.
As for `FC(F)(F)C1(c2cn3c(-c4cccc(N[C@H]5CNCC56CC6)n4)cnc3cn2)CC1` [Compound 12, (R)-N-(6-(6-(1-(trifluoromethyl)cyclopropyl)imidazo[1,2-a]pyrazin-3-yl)pyridin-2-yl)-5-azaspiro[2.4]heptan-7-amine], the IC50 was 7 nM in the assay with MOLM14 D835Y cells (Homo sapiens, MOLM-14, 48 h); < 0.5 nM on FLT3; 72 nM in the assay with MOLM14 F691L cells (Homo sapiens, MOLM-14, 48 h); 165 nM against IRAK1; 3 nM against IRAK4.
Regarding `F[C@H]1CCNC[C@@H]1Nc1cccc(-c2cnc3cnc(C4(C(F)(F)F)CC4)cn23)n1` [Compound 13, N-((3S,4S)-4-fluoropiperidin-3-yl)-6-(6-(1-(trifluoromethyl)cyclopropyl)imidazo[1,2-a]pyrazin-3-yl)pyridin-2-amine], the IC50 in the assay on MOLM14 D835Y cells (Homo sapiens, MOLM-14, 48 h) was 21 nM; on FLT3, < 0.5 nM; in the assay with MOLM14 F691L cells (Homo sapiens, MOLM-14, 48 h), 159 nM; at IRAK1 it was 77 nM; at IRAK4 it was 5 nM.
Turning to `FC(F)c1cn2c(-c3cccc(N[C@@H]4CCCNC4)n3)cnc2cn1` [Compound 17, (R)-6-(6-(difluoromethyl)imidazo[1,2-a]pyrazin-3-yl)-N-(piperidin-3-yl)pyridin-2-amine], the IC50 in the assay on MOLM14 D835Y cells (Homo sapiens, MOLM-14, 48 h) was 10 nM; against FLT3, < 0.5 nM; in the assay on MOLM14 F691L cells (Homo sapiens, MOLM-14, 48 h), 88 nM; against IRAK1 it was 288 nM; against IRAK4 it was 5 nM.
On to `FC(F)c1cn2c(-c3cccc(N[C@H]4CNC[C@@H]4C(F)(F)F)n3)cnc2cn1` [Compound 19, 6-(6-(difluoromethyl)imidazo[1,2-a]pyrazin-3-yl)-N-((3R,4S)-4-(trifluoromethyl)pyrrolidin-3-yl)pyridin-2-amine], for which the IC50 in the assay on MOLM14 D835Y cells (Homo sapiens, MOLM-14, 48 h) is 2 nM; against FLT3 it was < 0.5 nM; in the assay on MOLM14 F691L cells (Homo sapiens, MOLM-14, 48 h) it was 19 nM; against IRAK1 it was 32 nM; against IRAK4, < 0.5 nM.
As for `CC(C)(O)c1cn2c(-c3cccc(N[C@H]4CNC[C@@H]4F)n3)cnc2cn1` [Compound 28, 2-(3-(6-(((3S,4S)-4-fluoropyrrolidin-3-yl)amino)pyridin-2-yl)imidazo[1,2-a]pyrazin-6-yl)propan-2-ol], the half-maximal inhibitory concentration (IC50) in the assay with MOLM14 D835Y cells (Homo sapiens, MOLM-14, 48 h) is 94 nM; against FLT3, < 0.5 nM; with MOLM14 F691L cells (Homo sapiens, MOLM-14, 48 h) it was 502 nM; against IRAK1 it was 220 nM; at IRAK4 it was 0.7 nM.
The corresponding values for `FC(F)(F)COc1cn2c(-c3cccc(N[C@H]4CNCC45CC5)n3)cnc2cn1` [Compound 40, (R)-N-(6-(6-(2,2,2-trifluoroethoxy)imidazo[1,2-a]pyrazin-3-yl)pyridin-2-yl)-5-azaspiro[2.4]heptan-7-amine] are 23 nM, < 0.5 nM, 152 nM, 101 nM and 2 nM.
On the same counts, the results for `c1cc(N[C@@H]2CCCNC2)nc(-c2cnc3cnc(C4CC4)cn23)c1` [Compound 48, (R)-6-(6-cyclopropylimidazo[1,2-a]pyrazin-3-yl)-N-(piperidin-3-yl)pyridin-2-amine] are 9 nM, 0.6 nM, 38 nM, 60 nM and 3 nM.
As to `F[C@H]1CNC[C@@H]1Nc1cccc(-c2cnc3cnccn23)n1` [Compound 68, N-((3S,4S)-4-fluoropyrrolidin-3-yl)-6-(imidazo[1,2-a]pyrazin-3-yl)pyridin-2-amine], the half-maximal inhibitory concentration (IC50) was 47 nM in the assay with MOLM14 D835Y cells (Homo sapiens, MOLM-14, 48 h); < 0.5 nM on FLT3; 473 nM with MOLM14 F691L cells (Homo sapiens, MOLM-14, 48 h); 727 nM against IRAK1; 4 nM against IRAK4.
On the same counts, the results for `FC(F)COc1cn2c(-c3cccc(N[C@@H]4CCCNC4)n3)cnc2cn1` [Compound 75, (R)-6-(6-(2,2-difluoroethoxy)imidazo[1,2-a]pyrazin-3-yl)-N-(piperidin-3-yl)pyridin-2-amine] are 15 nM, < 0.5 nM, 158 nM, 504 nM and 4 nM.
The corresponding values for `O=S1(=O)CCCN1c1cn2c(-c3cccc(N[C@H]4CNC[C@@H]4F)n3)cnc2cn1` [Compound 95, 2-(3-(6-(((3S,4S)-4-fluoropyrrolidin-3-yl)amino)pyridin-2-yl)imidazo[1,2-a]pyrazin-6-yl)isothiazolidine 1,1-dioxide] are 21 nM, < 0.5 nM, 193 nM, 43 nM and 1 nM.
On the same counts, the results for `O=S1(=O)CCCCN1c1cn2c(-c3nc(N[C@@H]4CCCNC4)c(F)cc3F)cnc2cn1` [Compound 101, (R)-2-(3-(3,5-difluoro-6-(piperidin-3-ylamino)pyridin-2-yl)imidazo[1,2-a]pyrazin-6-yl)-1,2-thiazinane 1,1-dioxide] are 217 nM, 0.9 nM, 1540 nM, 175 nM and 24 nM.
